This is an account of results in patent US20200297798A1, “KEY AMINO ACID SITES […] EXPORT OF NUC[…] INFLUENZA A AND B VIRUSES AND USE THEREOF AS ANTI-INFLUENZA VIRUS DRUG TARGETS” (INSTITUTE OF MICROBIOLOGY, CHINESE ACADEMY OF SCIENCES, priority 2017, published 2020).

The target of test [1] is ANP Y148F (Influenza A virus, UniProt P15682, Y148F).
Test [2] addresses BNP F209A (Influenza B virus, UniProt P04665, F209A).

For `COc1ccc2cc(C(C)C(=O)O)ccc2c1` (stereo not drawn) [naproxen, (+) α-methyl-6-methoxy-2-naphthaleneacetic acid], in test [1], the “n (stoichiometry)” value turned out to be 0.10, the ΔH was -10.92 kcal/mol and the ΔS is recorded as −83.45 J/mol · K. In test [2], the “n (stoichiometry)” value was 1.68, the ΔH was -0.167 kcal/mol and the ΔS turned out to be 102.6 J/mol · K.
